The subject of data set [1] is M. tuberculosis H37Rv. The data set can be described thus: MIC by agar dilution method. It is filed as cell-based. Conditions: Mycobacterium tuberculosis, acidic agar pH 5.5 to 6, 30 days.
Data set [2] is classed as in vitro ADME, mouse. As for the experimental part:
Test compounds were weighed and dissolved in dimethyl sulfoxide (DMSO) to give 10 mM stock solutions. The stock solutions were diluted to 500 μM with a mixture of methanol and H2O (1:1), and the final concentrations of DMSO and methanol were equal to, or less than, 0.1%. Liver microsome incubations were conducted in duplicate in 96—well plates. Each well contained 40 μL of 0.1 M potassium phosphate buffer (pH 7.4), 2.5 mM MgCl2, 0.625 mg/mL mouse liver microsomes, and test compound (1.25 μM) or positive control. After a 5 min pre-incubation at 37°C, 10 μL of 5.0 mM NADPH in 0.1 M potassium phosphate buffer was added to initiate the enzymatic reaction. The final concentrations were 0.1M potassium phosphate (pH 7.4), 1.0 mM NADPH, 2.0 mM MgCl2, 0.5 mg/mL mouse liver microsomes, and test compound (1.0 μM) or positive control (1.0 μM). Reactions were terminated at various time points (0, 5, 10, 20, 40 min) by adding 100 μL of ice-cold acetonitrile containing internal standard. A parallel incubation was performed using 0.1 M potassium phosphate (pH 7.4) instead of NADPH as the negative control, and the reaction was terminated 40 min after incubation at 37°C. Compound quantitation was performed on a Shimadzu liquid chromatographic system coupled with an API4000 mass spectrometer equipped with TurboIonSpray (ESI) Interface (Applied Biosystems).

In data set [3] the test system is M. tuberculosis. On the set-up: method as in PMID 23287128. Conditions: ref [31]; cited from earlier work.
For data set [4], the system named is J774A.1 murine macrophage cells. Kind of data set: Uptake assay in macrophage cells. It is filed as cell-based. The conditions noted are these: 120 min of incubation.
The test system of data set [5] is M. tuberculosis (H37Rv). Kind of data set: In vitro accumulation assay, M. tuberculosis. Conditions: 120 min of incubation. The format is cell-based.
Data set [6] has as its system Staphylococcus aureus (ATCC 29213). The data set can be described thus: In vitro accumulation assay, S. aureus. It is filed as cell-based. The conditions noted are these: 120 min of incubation.
For data set [7] the following is noted: mouse, 740 kBq/mL.
For data set [8], the system named is Pseudomonas aeruginosa (ATCC 10145). The data set can be described thus: In vitro accumulation assay, P. aeruginosa. It is filed as cell-based. The conditions noted are these: 120 min of incubation.
Data set [9] has as its system heat-killed control cultures. Kind of data set: Accumulation assay in heat-killed bacteria (negative control). The conditions noted are these: heat-killed 90°C for 30 min.
Data set [10] can be described thus: PET/CT imaging and ex vivo biodistribution in M. tuberculosis-infected and uninfected mice.
Data set [11] relates to Escherichia coli (ATCC 25922). The data set can be described thus: In vitro accumulation assay, E. coli. It is filed as cell-based. The conditions noted are these: 120 min of incubation.
The mark [12] stands for this setting: M. tuberculosis H37Rv, read-out: MIC.

Molecules are shown by their SMILES. In brackets after ≈: the same amount, converted by molar mass. Entries after “also recorded” stand apart in the source; their conditions may differ. Where two headings read alike, the source gives them in different places.

On to `NC(=O)c1cnc(F)cn1` [5-F-PZA, 5-Fluoropyrazinamide], for which the MIC in data set [1] (H37RV, read-out: concentration up to which bacterial growth was not inhibited (MIC)) was > 2000 µg/mL; in [1] (setting [12]) it was > 2000 µg/mL. The “fraction of initial concentration metabolized” value in data set [2] (CD-1, mouse, microsomes, 40 min, 1 μM, pH 7.4) is recorded as “approximately 20%”. In addition, in [2] (mouse), the “stability in the presence of liver microsomes” value is listed as “not stable”.

As for `NC(=O)c1cnc(Cl)cn1` [5-Cl-PZA, 5-Chloropyrazinamide], in [3], the “activity in M. tuberculosis-infected mice” value was “lack of activity”.

As to `NC(=O)c1cnccn1` [PZA, pyrazinamide], in data set [1] (setting [12]), the MIC came out at 20 µg/mL (≈ 0.162 mM).

Consider `NC(=O)c1cnc([18F])cn1` [5-[^18F]F-PZA, 5-[^18F]F-pyrazinamide], for which, in data set [4], the “Accumulation in J774A.1 murine macrophage cells” value is recorded as 0.057±0.019. The “In vitro accumulation in M. tuberculosis” value in [5] was 0.094%. In addition, in data set [6], the “In vitro accumulation in S. aureus” value stood at 0.123±0.014. Besides, in data set [7], the “incubation time after which defluorination could be detected” value is given as 2 min. Moreover, in data set [7] (30 min), the “percent of total activity defluorinated” value is listed as ~ 25%. Moreover, the percent defluorination in data set [7] (60 min) is ~ 40%. Further, the “In vitro accumulation in P. aeruginosa” value in data set [8] was 0.043±0.026. For the same compound, in data set [9], the “Uptake in heat-killed control cultures” value is recorded as “no uptake”. Also, in data set [10] (PET 10 min and 30 min post-injection, post-mortem analysis), the bone activity entry is reported as “significant activity in the bones”. Also, in data set [10] (PET imaging), the “distribution to organs after intravenous administration” value is listed as “rapidly distributed to various organs” and the elimination from organs result is recorded as “rapidly eliminated from all major organs”. Moreover, the “ex vivo activity in lung (and spleen), infected vs uninfected” value in [10] (direct γ counting after PET imaging) was “higher activity in uninfected lung tissue compared to infected lungs; also recorded: higher activity in uninfected lung and spleen tissues”. Further, in data set [10] (intravenous, throughout 60 min post-injection), the “PET concentration (%ID/cc) in blood, liver, bone and lungs, infected vs uninfected mice” value is given as “not significantly different; also recorded: No significant difference”. Moreover, the “In vitro accumulation in E. coli” value in data set [11] is given as 0.055±0.005.

The record behind these values is paper PMC5289470, “The biodistribution of 5-[^18F]fluoropyrazinamide in Mycobacterium tuberculosis-infected mice determined by positron emission tomography” (PLoS ONE, 2017).
